Assay results from patent publication US5254801A, “Heterologous dominant conditional lethal gene which is a phosphonate monoester hydrolase and use thereof in plants” (Monsanto Company, priority 1990, dated 1993).

Experiments:
[1] = Translocation of radiolabelled compound applied to tomato leaves; format: in vivo; details: tissues analysed after two days
Method: The critical tests for a prophytotoxin to be used in negative selection, cell ablation and as a gametocide are that the compound is non-phytotoxic per se but can be hydrolyzed into a phytotoxin by the phosphonate monoester hydrolase protein. The most general and specific method to determine if a protoxin is hydrolyzed to a toxic form of glyphosate is a HPLC assay. The compounds are dissolved at 100 mM concentration in a suitable buffer such as 10 mM TAPS, (N-Tris(hydroxymethyl)methyl-2-aminopropane sulfonic acid) pH 9.0. Triplicate samples (0.1 ml) of the compound are then diluted with 0.9 ml of 10 mM TAPS, pH 9.0 and with 0.9 ml 10 mM TAPS, pH 9.0 plus one unit (1 μmol/min) of enzyme. After 24 hour incubation at 25° C., the samples are injected onto a HPLC column for glyphosate analysis. […] The protoxin and glyphosate are separated on an anion exchange column. the glyphosate is oxidized as it elutes in the presence of bleach and is then derivatized by o-pthaldehyde to a fluorescent derivative which can be quantitatively measured by a fluorescence monitor. […] After two days, the plant is dissected into individual tissues and the amount of protoxin in each tissue determined. […] The tissue samples were then combusted and the amount of radiolabelled compound in each tissue determined by scintillation counting.

LBAA crude extract = test: In vitro radioactive hydrolysis assay in crude extracts; format: biochemical; details: strain LBAA
Text: (§1) The enzymatic reaction can be assayed using labelled (3-^14 C-) glyceryl glyphosate as a substrate and following the conversion to (3-^14 C-)glyphosate as a product using a high pressure liquid chromatography system with a radioactive detector. This assay is the most specific for the phosphonate monoester hydrolase enzymes useful for conditional cell lethality. An enzyme assay consists of 40,000 cpm of labelled (3-^14 C-) glyceryl glyphosate (obtained from NEN Biochemicals), the PEH sample in buffer and buffer to 100 μl final volume. The assay buffer is 10 mM Bis-Tris propane, pH 9.0, plus 100 mM KCl. The reaction is run for 1 hour at 30° C. and then stopped by the addition of 100 μl "quench" which is 100 mM sodium acetate, pH 5.5, in ethanol. The denatured protein is then spun down at 10,000 rpm in a microfuge and the supernatant transferred to an HPLC injection vial. A 100 μl aliquot is then injected onto an Synchropac AX100 anion exchange column 4.6×250 mm) pre-equilibrated in 65 mM potassium phosphate buffer, pH 5.5. The radioactive compounds are eluted isocratically for 15 min at 1 ml/min. The radioactivity of the peaks is measured and integrated by a post-column detector. Typically, the substrate elutes at 4.9 min and the product, glyphosate, at 9.7 min providing baseline separation. […] Alternatively, blank reactions can be included to determine the preexisting glyphosate contamination.
(§2) Bacteria which grew in this medium using glyceryl glyphosate as a sole phosphate source had the ability to cleave both the ester and the phosphonate bond to release the free phosphate. For these bacteria to be useful in the present invention, the first step in the mineralization of glyceryl glyphosate needed is the hydrolysis of the phosphonate ester. Each of the three bacteria which utilized glyceryl glyphosate as a phosphate source were then assayed for a phosphonate monoester hydrolase activity using an in vivo (3-^14 C-) glyceryl glyphosate assay. A 150 ml culture of each bacteria was grown in DF minimal medium with 0.2 mM HK2 PO4 as a phosphate source in a 500 ml flask, 30° C., with shaking. The bacteria were pelleted by centrifugation at 5,000×g for 10 min and resuspended at 10 mg fresh weight/ml. An assay mix included 50 μl cells plus 10 μl (3-^14 C-) glyceryl glyphosate (10,000 cpm/μl) and kept at 30° C. with shaking. After a three hour incubation period, the cells were pelleted in a microfuge and the supernatant injected onto an HPLC anion exchange column and glyphosate analyzed as described above. The pellet was washed twice with 1 ml 10 mM HEPES, pH 7.0, and resuspended in 25 μl buffer. The cells were lysed with 25 μl quench and the debris pelleted in a microfuge. The pellet extract was then analyzed for glyphosate product as described above. […]

T10 crude extract = test: as above; format: biochemical; details: strain T10
Text: as §1, §2

T12 crude extract = test: as above; format: biochemical; details: strain T12
Text: as §1, §2

[2] = system: E. coli MM294, JM101, JM101/MPU+, SR200/MPU crude extract; test: as above; format: biochemical; details: E. coli strains
Text: as §1, §2

## O=C(O)CNCP(=O)(O)OCC(O)CO (centres unmarked) [glyceryl glyphosate, glycine, N-([hydroxy (2,3 dihydroxy propoxy)phosphonyl]methyl)]
[1]
  Translocation to developing anthers: translocates to developing anthers
LBAA crude extract
  Hydrolysis of Glyceryl Glyphosate into Glyphosate in Crude Extracts: Yes
T10 crude extract
  Hydrolysis of Glyceryl Glyphosate into Glyphosate in Crude Extracts: No
T12 crude extract
  Hydrolysis of Glyceryl Glyphosate into Glyphosate in Crude Extracts: Yes
[2]
  Hydrolysis of Glyceryl Glyphosate into Glyphosate in Crude Extracts: No
